Assay results as given in ChEMBL document CHEMBL1132085, “Analogues of 4,5-bis(3,5-dichlorophenyl)-2-trifluoromethyl-1H-imidazole as potential antibacterial agents” (1999).
Converted amounts (≈) assume the structure as drawn.

What follows are compounds tested on Escherichia coli (assay: Antibacterial activity against Escherichia coli (Ec)).
Format: functional

`FC(F)(F)c1nc(-c2cc(Cl)cc(Cl)c2)c(-c2cc(Cl)cc(Cl)c2)[nH]1` and `Oc1nc(-c2cc(Cl)cc(Cl)c2)c(-c2cc(Cl)cc(Cl)c2)[nH]1` cannot be ordered by MIC: greater than 32 µg/mL for the first, greater than 32 µg/mL for the second.

`CSc1nc(-c2cc(Cl)cc(Cl)c2)c(-c2cc(Cl)cc(Cl)c2)[nH]1` and `Cc1nc(-c2cc(Cl)cc(Cl)c2)c(-c2cc(Cl)cc(Cl)c2)[nH]1` cannot be ordered by MIC: greater than 32 µg/mL for the first, greater than 32 µg/mL for the second.

`Clc1cc(Cl)cc(-c2nc[nH]c2-c2cc(Cl)cc(Cl)c2)c1` and `Nc1nc(-c2cc(Cl)cc(Cl)c2)c(-c2cc(Cl)cc(Cl)c2)[nH]1` cannot be ordered by MIC: greater than 32 µg/mL for the first, greater than 32 µg/mL for the second.

`CCNC(=O)c1nc(-c2cc(Cl)cc(Cl)c2)c(-c2cc(Cl)cc(Cl)c2)[nH]1` and `COC(=O)c1nc(-c2cc(Cl)cc(Cl)c2)c(-c2cc(Cl)cc(Cl)c2)[nH]1` cannot be ordered by MIC: greater than 32 µg/mL for the first, greater than 32 µg/mL for the second.

`CS(=O)(=O)c1nc(-c2cc(Cl)cc(Cl)c2)c(-c2cc(Cl)cc(Cl)c2)[nH]1` and `Sc1nc(-c2cc(Cl)cc(Cl)c2)c(-c2cc(Cl)cc(Cl)c2)[nH]1` cannot be ordered by MIC: greater than 32 µg/mL for the first, greater than 32 µg/mL for the second.

`FC(F)(F)c1nc(-c2cc(Cl)cc(Cl)c2)c[nH]1` and `Cn1c(C(F)(F)F)nc(-c2cc(Cl)cc(Cl)c2)c1-c1cc(Cl)cc(Cl)c1` cannot be ordered by MIC: greater than 32 µg/mL for the first, greater than 32 µg/mL for the second.

`O=Cc1nc(-c2cc(Cl)cc(Cl)c2)c(-c2cc(Cl)cc(Cl)c2)[nH]1` showed an MIC greater than 32 µg/mL.

These compounds were tested on Staphylococcus aureus (assay: Antibacterial activity against methicillin resistant Staphylococcus aureus (MRSA)).
Format: functional

Point of comparison: `O=Cc1nc(-c2cc(Cl)cc(Cl)c2)c(-c2cc(Cl)cc(Cl)c2)[nH]1`, MIC 2 µg/mL (≈ 5.18 µM). Against it:
- FC(F)(F)c1nc(-c2cc(Cl)cc(Cl)c2)c(-c2cc(Cl)cc(Cl)c2)[nH]1 — 8-fold lower, 0.25 µg/mL (≈ 0.587 µM)
- CSc1nc(-c2cc(Cl)cc(Cl)c2)c(-c2cc(Cl)cc(Cl)c2)[nH]1 — higher, > 32 µg/mL
- Clc1cc(Cl)cc(-c2nc[nH]c2-c2cc(Cl)cc(Cl)c2)c1 — higher, > 32 µg/mL
- CCNC(=O)c1nc(-c2cc(Cl)cc(Cl)c2)c(-c2cc(Cl)cc(Cl)c2)[nH]1 — higher, > 32 µg/mL
- COC(=O)c1nc(-c2cc(Cl)cc(Cl)c2)c(-c2cc(Cl)cc(Cl)c2)[nH]1 — higher, > 32 µg/mL
- Oc1nc(-c2cc(Cl)cc(Cl)c2)c(-c2cc(Cl)cc(Cl)c2)[nH]1 — 4-fold higher, 8 µg/mL (≈ 21.4 µM)
- Cc1nc(-c2cc(Cl)cc(Cl)c2)c(-c2cc(Cl)cc(Cl)c2)[nH]1 — higher, > 32 µg/mL
- CS(=O)(=O)c1nc(-c2cc(Cl)cc(Cl)c2)c(-c2cc(Cl)cc(Cl)c2)[nH]1 — 2-fold higher, 4 µg/mL (≈ 9.17 µM)
- Nc1nc(-c2cc(Cl)cc(Cl)c2)c(-c2cc(Cl)cc(Cl)c2)[nH]1 — the same, 2 µg/mL (≈ 5.36 µM)
- FC(F)(F)c1nc(-c2cc(Cl)cc(Cl)c2)c[nH]1 — 8-fold higher, 16 µg/mL (≈ 56.9 µM)
- Cn1c(C(F)(F)F)nc(-c2cc(Cl)cc(Cl)c2)c1-c1cc(Cl)cc(Cl)c1 — 4-fold higher, 8 µg/mL (≈ 18.2 µM)
- Sc1nc(-c2cc(Cl)cc(Cl)c2)c(-c2cc(Cl)cc(Cl)c2)[nH]1 — higher, > 32 µg/mL

What follows are compounds tested on Bacillus subtilis (assay: Antibacterial activity against Bacillus subtilis (Bs)).
Format: functional

Point of comparison: `Clc1cc(Cl)cc(-c2nc[nH]c2-c2cc(Cl)cc(Cl)c2)c1`, MIC 4 µg/mL (≈ 11.2 µM). Against it:
- FC(F)(F)c1nc(-c2cc(Cl)cc(Cl)c2)c(-c2cc(Cl)cc(Cl)c2)[nH]1 — the same, 4 µg/mL (≈ 9.39 µM)
- CSc1nc(-c2cc(Cl)cc(Cl)c2)c(-c2cc(Cl)cc(Cl)c2)[nH]1 — higher, > 32 µg/mL
- CCNC(=O)c1nc(-c2cc(Cl)cc(Cl)c2)c(-c2cc(Cl)cc(Cl)c2)[nH]1 — higher, > 32 µg/mL
- COC(=O)c1nc(-c2cc(Cl)cc(Cl)c2)c(-c2cc(Cl)cc(Cl)c2)[nH]1 — higher, > 32 µg/mL
- Oc1nc(-c2cc(Cl)cc(Cl)c2)c(-c2cc(Cl)cc(Cl)c2)[nH]1 — the same, 4 µg/mL (≈ 10.7 µM)
- Cc1nc(-c2cc(Cl)cc(Cl)c2)c(-c2cc(Cl)cc(Cl)c2)[nH]1 — higher, > 32 µg/mL
- CS(=O)(=O)c1nc(-c2cc(Cl)cc(Cl)c2)c(-c2cc(Cl)cc(Cl)c2)[nH]1 — the same, 4 µg/mL (≈ 9.17 µM)
- Nc1nc(-c2cc(Cl)cc(Cl)c2)c(-c2cc(Cl)cc(Cl)c2)[nH]1 — the same, 4 µg/mL (≈ 10.7 µM)
- FC(F)(F)c1nc(-c2cc(Cl)cc(Cl)c2)c[nH]1 — 4-fold higher, 16 µg/mL (≈ 56.9 µM)
- Cn1c(C(F)(F)F)nc(-c2cc(Cl)cc(Cl)c2)c1-c1cc(Cl)cc(Cl)c1 — the same, 4 µg/mL (≈ 9.09 µM)
- O=Cc1nc(-c2cc(Cl)cc(Cl)c2)c(-c2cc(Cl)cc(Cl)c2)[nH]1 — 2-fold lower, 2 µg/mL (≈ 5.18 µM)
- Sc1nc(-c2cc(Cl)cc(Cl)c2)c(-c2cc(Cl)cc(Cl)c2)[nH]1 — higher, > 32 µg/mL

The compounds below were run on Escherichia coli (assay: Antibacterial activity against Escherichia coli +polymyxin (Ec+)).
Format: functional

Point of comparison: `Oc1nc(-c2cc(Cl)cc(Cl)c2)c(-c2cc(Cl)cc(Cl)c2)[nH]1`, MIC 8 µg/mL (≈ 21.4 µM). Against it:
- FC(F)(F)c1nc(-c2cc(Cl)cc(Cl)c2)c(-c2cc(Cl)cc(Cl)c2)[nH]1 — 2-fold higher, 16 µg/mL (≈ 37.6 µM)
- CSc1nc(-c2cc(Cl)cc(Cl)c2)c(-c2cc(Cl)cc(Cl)c2)[nH]1 — higher, > 32 µg/mL
- Clc1cc(Cl)cc(-c2nc[nH]c2-c2cc(Cl)cc(Cl)c2)c1 — the same, 8 µg/mL (≈ 22.3 µM)
- CCNC(=O)c1nc(-c2cc(Cl)cc(Cl)c2)c(-c2cc(Cl)cc(Cl)c2)[nH]1 — higher, > 32 µg/mL
- COC(=O)c1nc(-c2cc(Cl)cc(Cl)c2)c(-c2cc(Cl)cc(Cl)c2)[nH]1 — higher, > 32 µg/mL
- Cc1nc(-c2cc(Cl)cc(Cl)c2)c(-c2cc(Cl)cc(Cl)c2)[nH]1 — higher, > 32 µg/mL
- CS(=O)(=O)c1nc(-c2cc(Cl)cc(Cl)c2)c(-c2cc(Cl)cc(Cl)c2)[nH]1 — 2-fold lower, 4 µg/mL (≈ 9.17 µM)
- Nc1nc(-c2cc(Cl)cc(Cl)c2)c(-c2cc(Cl)cc(Cl)c2)[nH]1 — the same, 8 µg/mL (≈ 21.4 µM)
- FC(F)(F)c1nc(-c2cc(Cl)cc(Cl)c2)c[nH]1 — the same, 8 µg/mL (≈ 28.5 µM)
- Cn1c(C(F)(F)F)nc(-c2cc(Cl)cc(Cl)c2)c1-c1cc(Cl)cc(Cl)c1 — higher, > 32 µg/mL
- O=Cc1nc(-c2cc(Cl)cc(Cl)c2)c(-c2cc(Cl)cc(Cl)c2)[nH]1 — higher, > 32 µg/mL
- Sc1nc(-c2cc(Cl)cc(Cl)c2)c(-c2cc(Cl)cc(Cl)c2)[nH]1 — higher, > 32 µg/mL
